These are literature values, as cited in patent US20100179202A1, “ORALLY DISINTEGRATING COMPOSITION OF ZOLMITRIPTAN” (AJANTA PHARMA LIMITED., priority 2009, published 2010).

For this series the following is noted: background description of the drug substance.

`CN(C)CCc1c[nH]c2ccc(C[C@H]3COC(=O)N3)cc12` [Zolmitriptan, (4S)-4-{[3-(2-dimethylaminoethyl)-1H-indol-5-yl]methyl}-1,3-oxazolidin-2-one]: the solubility in water result is listed as “readily soluble in water”.
